Experimental data reported in patent US12187700B2, “Polymorphs and cocrystals of a cardiac troponin activator” (Amgen Inc., priority 2019, dated 2025).
Converted amounts (≈) assume the structure as drawn. Where a name gives a salt, the structure may show the parent alone.

Columns and labels:
Assay type in all cases: physicochemical
[1] = Static storage stability of cocrystals and amorphous form by XRPD
[2] = Physical form stability (dehydration of the monohydrate); conditions: under vacuum at ambient temperature, at temperatures greater than 25° C. or at low humidity
[3] = Solubility in water (excess solid dispersed at least 24 hours at room temperature, UPLC-UV)
Method: Water: An excess of solid was added to water to produce a suspension and dispersed for at least 24 hours at room temperature. Suspensions were filtered. Filtrate was analyzed by UPLC-UV and compared against a standard curve to determine the solution concentration of the crystal form. Solids were analyzed by XRPD to determine the crystal form.

[4] = Solid stability of drug substance (chemical by UPLC; physical by XRPD, DSC, TGA); conditions: stored at 25° C./60% RH, 40° C./75% RH, 40° C./ambient or 60° C./ambient conditions
Method: Solid Stability Drug substance was stored at 25 C/60% RH, 40 C/75% RH, 40 C/ambient or 60 C/ambient conditions. Chemical stability was determined at each timepoint by dissolving the drug substance in 50% acetonitrile water for UPLC analysis. Physical stability was determined by analyzing the solid by XRPD, DSC and TGA.

[5] = Moisture sorption (dynamic vapor sorption, hygroscopicity 0 to 95% RH); conditions: for hygroscopicity: DVS, 0 to 95% RH
Method: Moisture Sorption Moisture sorption data was collected using a dynamic vapor sorption (DVS) analyzer. A sample size of approximately 5-10 mg was used in a quartz pan. Hygroscopicity was evaluated from 0 to 95% RH in increments of 5 or 10% RH. Data for adsorption and desorption cycles were collected. Equilibrium criteria were set at 0.002% weight change in 5 minute with a maximum equilibration time of 120 minutes.

## CS(=O)(=O)c1cncc(C(=O)N2[C@@H](C(=O)N[C@@H](c3cc(F)c(C(F)(F)F)cc3F)C3CC3)C[C@H]3C[C@H]32)c1 [Amorphous Form]
[1]; static storage at 80° C./0% RH or 40° C./75% RH
  time to crystallization upon static storage: ≤ 1 week

## CS(=O)(=O)c1cncc(C(=O)N2[C@@H](C(=O)N[C@@H](c3cc(F)c(C(F)(F)F)cc3F)C3CC3)C[C@H]3C[C@H]32)c1 [Form III]
[2]
  stability of the monohydrate (dehydration): dehydrates

## CS(=O)(=O)c1cncc(C(=O)N2[C@@H](C(=O)N[C@@H](c3cc(F)c(C(F)(F)F)cc3F)C3CC3)C[C@H]3C[C@H]32)c1 [Form IV]
[3]
  solubility in water: 10 µg/mL (≈ 18.4 µM)
[4]
  time physically and chemically stable on storage: 13 weeks
[5]
  hygroscopicity: non-hygroscopic

## CS(=O)(=O)c1cncc(C(=O)N2[C@@H](C(=O)N[C@@H](c3cc(F)c(C(F)(F)F)cc3F)C3CC3)C[C@H]3C[C@H]32)c1 [Form I]
[3]; thermodynamic from solid
  solubility: 13 µg/mL (≈ 23.9 µM)
[4]
  time physically and chemically stable on storage: 14 weeks
[5]
  hygroscopicity: non-hygroscopic

## CS(=O)(=O)c1cncc(C(=O)N2[C@@H](C(=O)N[C@@H](c3cc(F)c(C(F)(F)F)cc3F)C3CC3)C[C@H]3C[C@H]32)c1 [Glycerol cocrystal]
[1]; 40° C./75% RH storage 7 d
  storage stability by XRPD: Stable

## CS(=O)(=O)c1cncc(C(=O)N2[C@@H](C(=O)N[C@@H](c3cc(F)c(C(F)(F)F)cc3F)C3CC3)C[C@H]3C[C@H]32)c1 [Hydrochloride Salt Form]
[5]
  hygroscopicity: hygroscopic
[5]; exposure to water during moisture sorption experiments or slurry in water
  salt stability upon exposure to water: disproportionates to Free Form

## CS(=O)(=O)c1cncc(C(=O)N2[C@@H](C(=O)N[C@@H](c3cc(F)c(C(F)(F)F)cc3F)C3CC3)C[C@H]3C[C@H]32)c1 [Urea cocrystal]
[1]; 25° C./97% RH storage 7 d
  storage stability by XRPD: Stable
